Test results reported in patent US20250221965A1, “THERAPEUTIC AGENT FOR RESPIRATORY DISEASE” (THE JIKEI UNIVERSITY, priority 2022, published 2025).

Experiments:
[1] = system: p21 expression in human-derived cultured airway epithelial cells (HBEC) with cigarette smoke extract; assay: Action on smoking stimulation-induced cell senescence (p21 expression); type: cell-based; conditions: 24 hours
Protocol: The effect of pemafibrate was examined with reference to a procedure described in a literature (Saito N, et al.: J Immunol (2019), 202: 1428). That is, human-derived cultured airway epithelial cells (HBEC) were cultured in a culture medium supplemented with 10 nM to 100 nM of pemafibrate together with 1% cigarette smoke extract (CSE) for 24 hours, and were compared to a control (0 nM).

[2] = system: cigarette smoke-exposed COPD model; assay: Cigarette smoke-exposed COPD model; type: in vivo, C57BL/6J mice
From the text: The effect of pemafibrate was examined with reference to a procedure described in a literature ([…], et al.: Autophagy (2019), 15(3): 510)). That is, C57BL/6J mice were exposed to cigarette smoke with an exposure and inhalation system for small animals five times a week for 6 months. The mice were classified into a total of 4 groups as follows: the mice were classified into a normal diet group (Ctrl) and a 0.0003 w/w % pemafibrate mixed feed group (Pema), and the groups were each further classified into a room air group (RA) and a cigarette smoke exposure group (CS). First, a lung after the completion of the administration of pemafibrate was removed from the room air group (RA), and was evaluated for the expression of TFEB by being homogenized. […] Next, a bronchoalveolar lavage fluid was collected and evaluated for its cells. […] In addition, an alveolar diameter was measured and the degree of emphysema was evaluated.

[3] = system: TFEB expression in cultured human airway epithelial cells (BEAS2B); assay: Induction of TFEB expression in human airway epithelial cell; type: cell-based; conditions: 24 hours
Protocol: The effect of pemafibrate was examined with reference to a procedure described in a literature ([…], et al.: Autophagy (2019), 15(3): 510). That is, cultured human airway epithelial cells (BEAS2B) were cultured in a culture medium supplemented with 10 nM or 100 nM of pemafibrate for 24 hours, and were compared to a control (0 nM).

**Q.** What does the source list for `CC[C@@H](Oc1cccc(CN(CCCOc2ccc(OC)cc2)c2nc3ccccc3o2)c1)C(=O)O` [pemafibrate, (R)-2-[3-[[N-(benzoxazol-2-yl)-N-3-(4-methoxyphenoxy)propyl]aminomethyl]phenoxy]butyric acid]?
**A.** expression of p21 increased by CSE stimulation ([1]; 10 nM to 100 nM pemafibrate with 1% CSE, FIG. 2): suppressed by pemafibrate in a dose-dependent manner; suppressing action on cell senescence ([1]; 1% CSE): had a suppressing action on cell senescence; pemafibrate concentration giving significant difference in ratio of p21 to ACTB expression vs control ([1]; 1% CSE, p<0.05): ≥ 20 nM; destruction of lung structure (alveolar diameter, degree of emphysema) ([2]; cigarette smoke exposure (CS) 6 months, 0.0003 w/w % mixed feed, FIG. 5 and 6): the destruction of a lung structure due to the cigarette smoke exposure (CS) was suppressed; cell senescence due to cigarette smoke exposure ([2]; cigarette smoke exposure (CS) 6 months, 0.0003 w/w % mixed feed, FIG. 7): the cell senescence due to the cigarette smoke exposure (CS) was suppressed; expression of TFEB in lung homogenate ([2]; room air group (RA), 0.0003 w/w % pemafibrate mixed feed, 6 months, FIG. 3): an increase in expression of TFEB was observed; expression of TFEB ([3]; 10 nM or 100 nM pemafibrate, vs control (0 nM), FIG. 1): increased in a manner dependent on the dose; ratio of the expression amount of TFEB to the expression amount of ACTB ([3]; 10 nM or 100 nM, vs control, p<0.05): a significant difference was observed as compared to the control
